The species entered for data set [1] is Mus musculus. Kind of data set: Compound was tested for protection against 48/80 challenge in mice; No activity with both mice dying at 36 min. Type of data set: functional, organism-based.
Data set [2] is described as follows: Partition coefficient (logP). Type of data set: physicochemical. To be noted: octanol/water.
For data set [3], the system named is Mus musculus. As to the kind of experiment: In vivo activity of compound at 10 mg/kg in 48/80 challenge expressed as number of mice surviving for more than 240 min; 0/2. Type of data set: functional. To be noted: 4 h.
In data set [4] the test system is Mus musculus. Kind of data set: In vivo activity of compound at 40 mg/kg in 48/80 challenge expressed as number of mice surviving for more than 240 min; 0/2. Type of data set: functional. To be noted: 4 h.
Data set [5] concerns the target T1, Histamine H1 receptor (Cavia porcellus, UniProt P31389). Kind of data set: In vitro antagonistic activity at the Histamine H1 receptor in guinea pig ileum. Type of data set: functional, tissue-based.
In data set [6] the test system is Mus musculus. As to the kind of experiment: Effective dose (in vivo) by administering the compound in mice was determined. Type of data set: functional.
The subject of data set [7] is Mus musculus. As to the kind of experiment: In vivo activity of compound at 40 mg/kg in 48/80 challenge expressed as number of mice surviving for more than 240 min; 1/2. Conditions: 4 h. Type of data set: functional.
Data set [8] deals with Mus musculus. Kind of data set: In vivo activity of compound at 40 mg/kg in 48/80 challenge expressed as number of mice surviving for more than 240 min; 2/2. Type of data set: functional. Conditions: 4 h.
Data set [9] is filed under the species Mus musculus. Kind of data set: Ability of compound to protect mice against a lethal dose of 48/80; No activity. Type of data set: functional, organism-based.
Data set [10] deals with Mus musculus. Kind of data set: In vivo activity of compound at 10 mg/kg in 48/80 challenge expressed as number of mice surviving for more than 240 min; 1/2. Type of data set: functional. Conditions: 4 h.
The species named for data set [11] is Mus musculus. Kind of data set: Effective dose of compound in the […] challenge in mice. Type of data set: functional.
Data set [12] is filed under the species Mus musculus. Kind of data set: Effect of compound in the […] challenge in mice; No activity. Type of data set: functional, organism-based.
Data set [13] deals with T1, Histamine H1 receptor. As to the kind of experiment: In vitro antagonistic activity at the Histamine H1 receptor in guinea pig ileum; No inhibition. Type of data set: functional, tissue-based.

Results on 17 compounds are retold here after ChEMBL document CHEMBL1132913, “Conformationally-restricted ligands for the histamine H1 receptor” (Bioorg Med Chem Lett, 2000).

Molecules are shown by their SMILES. The source made the active and inactive calls. The rule behind the calls is not given here.

T1 sequence (P31389 whole entry): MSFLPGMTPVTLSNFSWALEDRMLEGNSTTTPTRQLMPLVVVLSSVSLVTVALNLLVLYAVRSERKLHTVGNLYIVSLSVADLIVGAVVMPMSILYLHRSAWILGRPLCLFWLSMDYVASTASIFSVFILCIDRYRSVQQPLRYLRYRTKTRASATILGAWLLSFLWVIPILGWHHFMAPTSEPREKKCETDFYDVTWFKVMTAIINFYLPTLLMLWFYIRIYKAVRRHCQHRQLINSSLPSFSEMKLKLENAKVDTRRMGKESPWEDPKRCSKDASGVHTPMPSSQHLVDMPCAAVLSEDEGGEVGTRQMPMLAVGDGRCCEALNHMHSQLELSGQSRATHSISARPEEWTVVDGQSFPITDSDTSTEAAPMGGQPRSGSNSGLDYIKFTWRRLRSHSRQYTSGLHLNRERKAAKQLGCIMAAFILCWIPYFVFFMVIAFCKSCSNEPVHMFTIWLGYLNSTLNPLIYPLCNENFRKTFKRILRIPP

`CN1CC[C@H]2c3ccccc3[C@@H](c3ccccc3)[C@H]2C1`: the outcome in data set [1] was inactive.
With `c1ccc(CCN2CCC3=C(C2)C(c2ccccc2)c2ccccc23)cc1` (centres undefined), in data set [2] (read-out: logP), the log partition coefficient (logP) worked out at 6.59. In [3], the survival at 10 mg/kg turned out to be 0%. In data set [4], this compound had a survival at 40 mg/kg of 0%.
As to `C1=C2C(=C(c3ccccc3)c3ccccc32)CNC1`, in data set [2] (read-out: logP), the lipophilicity (logP) was found to be 4.41. In data set [5], this compound gave an IC50 of 53 nM. Moreover, the 50% effect level in data set [6] (ED50) was put at a dose of 40 mg/kg. Besides, the survival at 40 mg/kg in data set [7] and in data set [4] was 50% throughout.
As to `c1ccc(CN2CCC3=C(C2)C(c2ccccc2)c2ccccc23)cc1` (centres undefined), in [2] (read-out: logP), the lipophilicity (logP) amounted to 6.02. In addition, in data set [5], the IC50 is 470 nM. The compound further returned a survival at 10 mg/kg in data set [3] of 0%. In data set [4], this compound displayed a survival at 40 mg/kg of 0%.
In the case of `CCN1CCC2C(=C(c3ccccc3)c3ccccc32)C1` (centres undefined), in data set [2] (read-out: logP), the logP came to 5.76. The same compound returned a survival at 40 mg/kg in data set [8] of 100%.
As to `CN1CC[C@@](O)(c2ccccc2)[C@H](C(=O)c2ccccc2)C1`, the result in data set [9] was inactive. Moreover, the IC50 in data set [5] came out at 26 nM.
For `CCc1ccc(C2C3=C(CCN(C)C3)c3ccc(CC)cc32)cc1` (centres undefined), in [3], the survival at 10 mg/kg stood at 0%. The survival at 40 mg/kg in data set [4] came out at 0%.
Take `c1ccc(CN2CCC3C(=C(c4ccccc4)c4ccccc43)C2)cc1` (centres undefined): the logP in data set [2] was determined as 7.03. The same compound came in with an IC50 in data set [5] of 10.8 nM. In data set [3], the survival at 10 mg/kg was found to be 0%. This compound yielded a survival at 40 mg/kg in data set [4] of 0%.
For `CCN1CCC2=C(C1)C(c1ccccc1)c1ccccc12` (centres undefined), the logP in data set [2] (read-out: logP) came out at 4.92. This compound came in with a 50% inhibitory concentration (IC50) in data set [5] of 17 nM. Moreover, the survival at 10 mg/kg in [3] came to 0%. In data set [7], the survival at 40 mg/kg came out at 50%.
Regarding `CN1CCC2C(=C(c3ccccc3)c3ccccc32)C1` (centres undefined), the logP in data set [2] (read-out: logP) was 5.23. The IC50 in data set [5] came to 28 nM. The compound also came in with a survival at 10 mg/kg in [10] of 50%. In data set [8], this compound displayed a survival at 40 mg/kg of 100%.
For `CN1CCC2=C(C1)C(c1ccccc1)c1ccccc12` (centres undefined) [PHENINDAMINE], half-maximal inhibition in [5] (IC50) required 36 nM.
On to `CN1CC[C@H]2c3ccccc3C(c3ccccc3)[C@H]2C1` (single isomer, unassigned), for which, in [11], the 50% effect level (ED50) was put at a dose of 40 mg/kg.
`CCN1CC[C@@](O)(c2ccccc2)[C@H](C(=O)c2ccccc2)C1`: the result in [9] was inactive. The compound further returned a half-maximal inhibitory concentration (IC50) in data set [5] of 23 nM.
As to `c1ccc(CCN2CCC3C(=C(c4ccccc4)c4ccccc43)C2)cc1` (centres undefined), the logP in data set [2] (read-out: logP) turned out to be 7.43. The compound also displayed a survival at 10 mg/kg in data set [3] of 0%. In data set [7], this compound showed a survival at 40 mg/kg of 50%.
As to `CN1CC=C2C(=C(c3ccccc3)c3ccccc32)C1`, in [2] (read-out: logP), the lipophilicity (logP) was found to be 4.94. This compound also yielded an IC50 in data set [5] of 220 nM. This compound also gave a survival at 10 mg/kg in data set [3] of 0%. The compound also yielded a survival at 40 mg/kg in data set [4] of 0%.
Regarding `CCc1ccc([C@@H]2c3cc(CC)ccc3[C@@H]3CCN(C)C[C@H]23)cc1`, in [12], the ED50 entry is “inactive”.
With `CCN1CC=C2C(=C(c3ccccc3)c3ccccc32)C1`, the half-maximal inhibitory concentration (IC50) result in [13] is given as “Not Active”.

By logP is commonly meant a log measure of how a compound divides between an organic and an aqueous phase. As usually defined, the IC50 is the concentration that inhibits the measured activity by half. Higher therefore signals a need for much substance. What is called ED50 is the midpoint of the dose-response relation.
